PMC7293822 (ACS chemical biology, 2018)
Numbered stars: 1 amine (or outer) side, 2 acyl side, 3 side chain; on linkers, the order of the positions; unused ones are H or OH. Ends that are not written are not given here. Peptide text beside a SMILES is read from it. * marks the point of attachment. Glutaryl = O=C(CCCC(=O)[*:2])[*:1]; AMC = Cc1cc(=O)oc2cc(N*)ccc12

Assays:
human aminopeptidase B = human aminopeptidase B (Homo sapiens, UniProt Q9H4A4); assay: Fluorescent protease assay with AMC substrates, aminopeptidase B; type: biochemical; details: 2 nM human aminopeptidase B, 50 μM substrate, 30 min, D-PBS, 2 mM DTT
Sequence of human aminopeptidase B (Q9H4A4 whole entry): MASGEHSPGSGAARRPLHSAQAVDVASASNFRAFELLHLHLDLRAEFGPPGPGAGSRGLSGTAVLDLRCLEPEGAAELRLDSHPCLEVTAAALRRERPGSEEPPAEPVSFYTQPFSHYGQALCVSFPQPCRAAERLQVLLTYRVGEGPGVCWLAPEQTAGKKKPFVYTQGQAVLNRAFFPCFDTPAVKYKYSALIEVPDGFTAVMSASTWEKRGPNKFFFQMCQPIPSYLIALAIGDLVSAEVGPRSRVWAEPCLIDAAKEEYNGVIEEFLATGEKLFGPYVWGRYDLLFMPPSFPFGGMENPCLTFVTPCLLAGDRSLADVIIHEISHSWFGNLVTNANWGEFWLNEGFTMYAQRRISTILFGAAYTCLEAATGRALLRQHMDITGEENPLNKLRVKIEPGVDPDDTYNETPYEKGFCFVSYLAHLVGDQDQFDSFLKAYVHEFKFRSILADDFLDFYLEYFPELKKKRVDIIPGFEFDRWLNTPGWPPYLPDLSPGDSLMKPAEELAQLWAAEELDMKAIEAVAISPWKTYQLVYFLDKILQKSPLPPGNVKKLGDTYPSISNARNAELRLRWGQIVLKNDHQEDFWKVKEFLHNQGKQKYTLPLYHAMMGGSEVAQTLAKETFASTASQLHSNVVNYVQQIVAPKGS

bovine trypsin = target: T1, bovine trypsin (Bos taurus, UniProt P00760); assay: Fluorescent protease assay with AMC substrates, trypsin; type: biochemical; details: 100 nM bovine trypsin, 50 μM substrate, 30 min, D-PBS, 2 mM DTT
T1 sequence (P00760 24-246): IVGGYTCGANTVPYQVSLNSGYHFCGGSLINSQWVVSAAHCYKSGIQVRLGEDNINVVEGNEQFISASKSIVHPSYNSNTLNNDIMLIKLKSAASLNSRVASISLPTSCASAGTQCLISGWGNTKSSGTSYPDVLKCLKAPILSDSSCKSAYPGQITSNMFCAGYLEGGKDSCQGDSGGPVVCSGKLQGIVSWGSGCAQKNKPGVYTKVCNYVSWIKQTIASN

Pd_dinase [1] = assay: Fluorescent protease assay with AMC substrates, Pd_dinase; type: biochemical, Parabacteroidetes distasonis; details: 8 nM Pd_dinase, 50 μM substrate, 30 min, D-PBS, 2 mM DTT
Pd_dinase [2] = assay: Antimicrobial peptide digestion by Pd_dinase, LC-MS/MS; type: in vitro ADME, Parabacteroidetes distasonis
Streptococcus pyogenes = details: cited from earlier work
E. coli = details: cited from earlier work
Staphylococcus aureus = details: cited from earlier work
Pseudomonas aeruginosa = details: cited from earlier work
aminopeptidase B = assay: human aminopeptidase B; details: up to 30 min
Pd_dinase [3] = assay: Pd_dinase; details: Parabacteroidetes distasonis, up to 30 min
Pd_dinase [4] = assay: 10 nM of Pd_dinase incubated with each antimicrobial peptide; details: Parabacteroidetes distasonis, up to 1200 min
trypsin = assay: bovine trypsin; details: up to 30 min
Pd_dinase [5] = assay: Inhibition of Pd_dinase by peptide-AOMK inhibitors; type: biochemical, Parabacteroidetes distasonis; details: 50 μM inhibitor, 2 nM Pd_dinase, 50 μM substrate, activity monitored for 4 h

Cc1cc(=O)oc2cc(NC(=O)[C@@H](N)CCCN=C(N)N)ccc12 [Arg-AMC, NH2-arginine-AMC]
cleavage of AMC substrate by aminopeptidase B (human aminopeptidase B): only cleaved | cleavage of AMC substrate by trypsin (bovine trypsin): failed to hydrolyze | cleavage of AMC substrate by Pd_dinase (Pd_dinase [1]): does not cleave

Cc1cc(=O)oc2cc(NC(=O)[C@H](CCCNC(=N)N)NC(=O)CN)ccc12 [Gly-Arg-AMC, NH2-Gly-Arg-AMC] (H-Gly-Arg-{AMC})
cleavage of AMC substrate by Pd_dinase (Pd_dinase [1]): rapidly hydrolyzes

AIGGGLSSVGGGS [KAMP-13]
metabolised at 20 h, 5 μM (Pd_dinase [2]; Parabacteroidetes distasonis, isolated protease Pd dinase (10 nM)): 15.5%

GGLSSVGGGSSTIK [KAMP-14]
bactericidal activity (Streptococcus pyogenes): bactericidal | bactericidal activity (E. coli): bactericidal | degradation by Pd_dinase (Pd_dinase [2]; 10 nM Pd_dinase, 5 μM peptide, 5 to 1200 min, triplicate, LC-MS/MS): degraded into a 12-mer peptide | bactericidal activity (Staphylococcus aureus): bactericidal | bactericidal activity (Pseudomonas aeruginosa): bactericidal

Glutaryl-Gly-Arg-{AMC}
not cleaved (aminopeptidase B): aminopeptidase B only cleaved Arg-AMC | not cleaved (Pd_dinase [3]): does not cleave Glt-Gly-Arg-AMC

Glutaryl-Gly-Arg-{AMC} [Glt-Gly-Arg-AMC]
rate of cleavage by trypsin relative to Gly-Arg-AMC (bovine trypsin): 80 fold | cleavage of AMC substrate by Pd_dinase (Pd_dinase [1]): does not cleave

H-AIGGGLSSVGGGS-OH
cleaved bond (Pd_dinase [4]): Ile-G, minor | fragment found (Pd_dinase [4]): 9-mer peptide

H-Gly-Arg-{AMC}
not cleaved (aminopeptidase B): aminopeptidase B only cleaved Arg-AMC

NH2-arginine-AMC
not cleaved (trypsin): failed to hydrolyze Arg-AMC | not cleaved (Pd_dinase [3]): does not cleave Arg-AMC

NH2-glycine-arginine-AOMK [Gly-Arg-AOMK]
effect on Pd_dinase activity (Pd_dinase [5]): completely inhibited
